Measurements: US6900200B2, “Tricyclic hydroxy carboxamides and derivatives thereof tocolytic oxytocin receptor antagonists” (Wyeth, priority 2001, dated 2005)

Each molecule was assayed against T1, human oxytocin receptor (Homo sapiens, UniProt P30559) (assay: Oxytocin binding in CHO cell membranes expressing human oxytocin receptors ([3H]oxytocin radioligand binding)). Conditions: @ 100 nM, read-out: OT % inhibition @ 100 nM.
T1 construct: host or cells: CHO cells, pcDNA3.1 vector
T1 sequence (P30559 1-389): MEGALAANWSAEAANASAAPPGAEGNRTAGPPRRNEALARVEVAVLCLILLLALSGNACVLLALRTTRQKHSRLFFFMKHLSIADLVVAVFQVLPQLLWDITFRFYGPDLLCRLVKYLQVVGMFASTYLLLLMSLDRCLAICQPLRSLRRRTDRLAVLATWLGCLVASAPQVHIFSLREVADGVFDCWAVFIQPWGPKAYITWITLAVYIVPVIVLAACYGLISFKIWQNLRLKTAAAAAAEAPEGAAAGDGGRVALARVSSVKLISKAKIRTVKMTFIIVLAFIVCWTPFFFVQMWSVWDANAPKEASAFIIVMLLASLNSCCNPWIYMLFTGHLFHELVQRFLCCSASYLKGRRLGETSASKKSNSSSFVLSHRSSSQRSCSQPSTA
Source text: Oxytocin Binding in Chinese Hamster Ovary Cell Membranes Expressing Human Oxytocin Receptors
Chinese Hamster Ovary (CHO) cells stably transfected with the human oxytocin receptor (cf. Tanizawa et al., U.S. Pat. No. 5,466,584 (1995) to Rohto Pharmaceutical Co. Ltd., Osaka, Japan) were obtained from M. Thibonnier, Case Western Reserve University School of Medicine, Cleveland, Ohio.
A. Passaging and Amplification of Cells
CHO cells transfected with the human oxytocin receptors obtained from M. Thibonnier (pcDNA3.1 vector) are allowed to grow to confluency (approx. >90%) in T-150 flasks under sterile conditions, in a cell culture medium of F-12 Nutrient Mixture (HAM) with L-glutamine (Gibco Cat. #11765-054) containing 15 mM HEPES (Gibco Cat. #15630-080), 1% antibiotic/antimycotic (add 5 mL 100×, Gibco Cat. #15240-062 per 500 mL F-12), 400 μg/mL of Geneticin (add 4 mL of 50 mg/mL per 500 mL F-12) and 10% Fetal Bovine Serum (Qualified, heat inactivated, Gibco Cat. #16140-063). The medium is removed by aspiration and the cells are washed with 10 mL of Hank's Balanced Salt solution (Gibco Cat. #14175-095). The salt solution is removed by aspiration and the cells trypsinized with 5 mL of trypsin-EDTA (0.05% trypsin, 0.53 mM EDTA-4Na, Gibco Cat. #25300-070) for 1 min. The trypsin is removed by aspiration and the cells dislodged by tapping. Cell Culture medium (e.g. 30 mL for 1:30 split) is immediately added and mixed well to inactivate trypsin. 1 mL of detached cells is added to new culture flasks containing fresh Cell Culture medium (e.g. into 25 mL per T-150 flask), and mixed gently. The cells are incubated at 37° C. in 5% CO2. The medium is changed at 3 to 4 days interval (or as appropriate). The cells grow to confluency (approx. >75%-95%) within 7-8 days. All steps are done under sterile conditions.
The cells are washed twice gently with Hank's Balanced Salt solution (e.g., use 10 mL per T-1 50 flask). The excess solution is removed and the cells bathed for 15-30 min. in an enzyme-free Cell Dissociation Buffer (e.g., use 8 mL Hank's Based, Gibco Cat. #13150-016 per T-150 flask) until cells are loosened. The contents are transferred to centrifuge tubes (50 mL size) kept in ice bath. All subsequent steps are done at 4° C. The tubes are centrifuged at 300×g for 15 min (1380 rpm on SORVAL, Model RT6000D, using rotor for 50 mL tubes). The supernatant is discarded and the cells suspended in homogenizing buffer (10 mM Tris-HCl containing 0.25 M sucrose and 1 mM EDTA, pH 7.4) ensuring that the volume of the buffer is about ten times the volume of the cell pellet. The cells are pooled into a centrifuge tube (50 mL) and homogenized with a Polytron at setting 6 for 10 sec. The homogenate is transferred into a Potter-Elvjehm homogenizer and homogenized with 3 strokes. The homogenate is centrifuged at 1500×g for 10 min at 4° C. (3100 rpm using SORVAL, model RT6000D, using rotor for 50 mL tubes). The pellet is discarded. The supernatant is centrifuged at 100,000×g for 60 min. at 4° C. (Beckman L8-80M ultracentrifuge; spin at 37,500 rpm with rotor type 70 Ti for 50 mL tubes; 38,000 rpm with type 80Ti for 15 mL tubes; or 35,800 rpm with rotor type 45Ti). The supernantant is discarded and the pellet suspended in 3 to 4 mL of Tris buffer (50 mM TRIS—HCl, pH 7.4). The protein content is estimated by the Bradford or Lowry method. The volume of the membrane suspension is adjusted with the membrane buffer (50 mM Tris-HCl containing 0.1% BSA and 0.1 mM PMSF) to give 3.0 mg/mL (or as appropriate) of protein. The membranes are aliquoted and stored at −70° C.
C. Radioligand Binding Assay
In wells of a 96-well format microtiter plate, is added 90, 110 or 130 μL (to make up a final volume of 200 μL) of assay buffer containing 50 mM of Tris-HCl (pH 7.4), […], 1 mg % aprotinin, 1 mg % leupeptin, 2 mg % 1,10-phenanthroline, 10 mg % trypsin inhibitor, and 0.1 mM PMSF. […]

Row | SMILES | inhibition at 0.1 µM [%]
1 | COc1cc2c(cc1OC)N(C(=O)c1ccc(-c3ccccc3C(F)(F)F)c(C)c1)Cc1ccc(C(=O)N(C)CC(O)CO)n1C2 (stereo not shown) [Example 18, N-(2,3-Dihydroxypropyl)-7,8-dimethoxy-N-methyl-10-{[2-methyl-2′-trifluoromethyl-[1,1′-biphenyl]-4-yl]carbonyl}-10,11-dihydro-5H-pyrrolo[2,1-c][1,4]benzodiazepine-3-carboxamide] | 36
2 | COc1ccccc1-c1ccc(C(=O)N2Cc3ccc(C(=O)N4CCN(CCO)CC4)n3Cc3ccccc32)cc1OC [Example 43, {10-[(2,2′-Dimethoxy[1,1′-biphenyl]-4-yl)carbonyl]-10,11-dihydro-5H-pyrrolo[2,1-c][1,4]benzodiazepin-3-yl}[4-(2-hydroxyethyl)-1-piperazinyl]methanone] | 75
3 | COc1cc(C(=O)N2Cc3ccc(C(=O)N4CCN(CCO)CC4)n3Cc3ccccc32)ccc1-n1c(C)ccc1C [Example 52, {10-[4-(2,5-Dimethyl-1H-pyrrol-1-yl)-3-methoxybenzoyl]-10,11-dihydro-5H-pyrrolo[2,1-c][1,4]benzodiazepin-3-yl}[4-(2-hydroxyethyl)-1-piperazinyl]methanone] | 36
4 | COc1ccccc1-c1ccc(C(=O)N2Cc3ccc(C(=O)N(C)C[C@@H](O)CO)n3Cc3ccccc32)cc1C (single isomer, unassigned) [Example 16] | 101
5 | Cc1ccccc1-c1ccc(C(=O)N2Cc3ccc(C(=O)N4CCN(CCO)CC4)n3Cc3ccccc32)cc1 [Example 45, [4-(2-Hydroxyethyl)-1-piperazinyl]{10-[(2′-methyl[1,1′-biphenyl]-4-yl)carbonyl]-10,11-dihydro-5H-pyrrolo[2,1-c][1,4]benzodiazepin-3-yl}methanone] | 87
6 | COc1cccc(-c2ccc(C(=O)N3Cc4ccc(C(=O)N5CCN(CCO)CC5)n4Cc4ccccc43)cc2OC)c1 [Example 50, {10-[(2,3′-Dimethoxy[1,1′-biphenyl]-4-yl)carbonyl]-10,11-dihydro-5H-pyrrolo[2,1-c][1,4]benzodiazepin-3-yl}[4-(2-hydroxyethyl)-1-piperazinyl]methanone] | 83

Same assay, conditions: value printed in parentheses, read-out: OT (IC50)

Row | SMILES | IC50 [nM]
7 | Cc1ccc(-c2ccc(C(=O)N3Cc4ccc(C(=O)N(C)CC(O)CO)n4Cc4ccccc43)cc2)c2ccccc12 (stereo not shown) [Example 26, 10-{[4-(4-Methyl-naphthalen-1-yl)phenyl]carbonyl}-10,11-dihydro-5H-pyrrolo[2,1-c][1,4]benzodiazepine-3-carboxylic acid (2,3-dihydroxy-propyl)-N-methylamide] | 55.8
8 | COCCN1CCN(C(=O)c2ccc3n2Cc2ccccc2N(C(=O)c2ccc(-c4ccccc4C(F)(F)F)c(C)c2)C3)CC1 [Example 7, Methyl 2-{4-[(10-{[2-methyl-2′-trifluoromethyl-[1,1′-biphenyl]-4-yl]carbonyl}-10,11-dihydro-5H-pyrrolo[2,1-c][1,4]benzodiazepin-3-yl)carbonyl]piperazin-1-yl}ethyl ether] | 30.7
9 | COC[C@@H](O)CN1CCN(C(=O)c2ccc3n2Cc2ccccc2N(C(=O)c2ccc(-c4ccccc4C(F)(F)F)c(C)c2)C3)CC1 [Example 9, [3-({4-[(2S)-2-Hydroxy-3-methoxypropyl]-1-piperazinyl}carbonyl)-5H-pyrrolo[2,1-c][1,4]benzodiazepin-10(11H)-yl][2-methyl-2′-trifluoromethyl-[1,1′-biphenyl]-4-yl]methanone] | 26.7
10 | Cc1cc(C(=O)N2Cc3ccc(C(=O)NC(CO)(CO)CO)n3Cc3ccccc32)ccc1-c1ccccc1C(F)(F)F [Example 3, 10-[(2-Methyl-2′-trifluoromethyl-[1,1′-biphenyl]-4-yl)carbonyl]-10,11-dihydro-5H-pyrrolo[2,1-c][1,4]benzodiazepine-3-carboxylic acid (2-hydroxy-1,1-bis-hydroxymethyl-ethyl)-amide] | 6.53
11 | COc1cc(-c2ccccc2C)c(Cl)cc1C(=O)N1Cc2ccc(C(=O)N3CCN(CCO)CC3)n2Cc2ccccc21 [Example 39, {10-[(6-Chloro-3-methoxy-2′-methyl[1,1′-biphenyl]-4-yl)carbonyl]-10,11-dihydro-5H-pyrrolo[2,1-c][1,4]benzodiazepin-3-yl}[4-(2-hydroxyethyl)-1-piperazinyl]methanone] | 3
12 | COc1cc(-c2ccccc2C(F)(F)F)c(Cl)cc1C(=O)N1Cc2ccc(C(=O)N(C)C[C@H](O)[C@@H](O)[C@H](O)[C@H](O)CO)n2Cc2ccccc21 [Example 20, 10-{[6-Chloro-3-methoxy-2′-trifluoromethyl-[1,1′-biphenyl]-4-yl]carbonyl}-N-methyl-N-[(2S,3R,4R,5R)-2,3,4,5,6-pentahydroxyhexyl]-10,11-dihydro-5H-pyrrolo[2,1-c][1,4]benzodiazepine-3-carboxamide] | 1.09
13 | COc1cc(C(=O)N2Cc3ccc(C(=O)N(C)CC(O)CO)n3Cc3ccccc32)ccc1-c1ccccc1C(F)(F)F (stereo not shown) [Example 21, N-(2,3-Dihydroxypropyl)-10-{[2-methoxy-2′-trifluoromethyl-[1,1′-biphenyl]-4-yl]carbonyl}-N-methyl-10,11-dihydro-5H-pyrrolo[2,1-c][1,4]benzodiazepine-3-carboxamide] | 1.73
14 | COC[C@H](O)CN1CCN(C(=O)c2ccc3n2Cc2ccccc2N(C(=O)c2ccc(-c4ccccc4C(F)(F)F)c(C)c2)C3)CC1 [Example 8, (2R)-1-Methoxy-3-{4-[(10-{[2-methyl-2′-trifluoromethyl-[1,1′-biphenyl]-4-yl]carbonyl}-10,11-dihydro-5H-pyrrolo[2,1-c][1,4]benzodiazepin-3-yl)carbonyl]piperazin-1-yl}propan-2-ol] | 7.55
15 | COc1ccccc1-c1ccc(C(=O)N2Cc3ccc(C(=O)N(C)C[C@H](O)[C@@H](O)[C@H](O)[C@H](O)CO)n3Cc3ccccc32)cc1C [Example 17, 10-[(2′-Methoxy-2-methyl-[1,1′-biphenyl]-4-yl)carbonyl]-10,11-dihydro-5H-pyrrolo[2,1-c][1,4]benzodiazepine-3-carboxylic acid methyl-[(2S,3R,4R, 5R)-2,3,4,5,6-pentahydroxy-hexyl)-amide] | 1.03
16 | COCC(CN(C)C(=O)c1ccc2n1Cc1ccccc1N(C(=O)c1ccc(-c3ccccc3C(F)(F)F)c(C)c1)C2)OC (stereo not shown) [Example 10, N-(2,3-Dimethoxypropyl)-N-methyl-10-{[2-methyl-2′-trifluoromethyl-[1,1′-biphenyl]-4-yl]carbonyl}-10,11-dihydro-5H-pyrrolo[2,1-c][1,4]benzodiazepine-3-carboxamide] | 5.31
